Experimental data taken from US11149031B2, “Substituted N-(3-fluoropropyl)-pyrrolidine compounds, processes for their preparation and therapeutic uses thereof” (SANOFI, priority 2016, dated 2021).
pIC50: −log10 of the molar value. Read-outs that look alike come from different tables or passages of the source.

What was measured:
[1] = target: His6-ERα298-554 D538G mutant (ERα ligand-binding domain) (Homo sapiens (Human), UniProt P03372, D538G); experiment: Test A: biochemical antagonist activity, LanthaScreen TR-FRET ERα coactivator assay, D538G mutant; settings: read-out: Antagonism D538G IC50
Procedure, shortened: (§1)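 TR-FRET 520:495 nm emission ratio read after overnight room-temperature incubation; IC50 derived by 4-parameter logistic fit. Mix: 0.5 nM receptor LBD, 0.5 nM Tb-His6 antibody, 250 nM PGC1a peptide, 3 nM or 10 nM estradiol, pH 7.4 phosphate buffer.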

ERα in MCF7 cells = ERα in MCF7 cells (Homo sapiens (Human), UniProt P03372); experiment: Test C: estrogen receptor degradation activity, ERα in cell western assay in MCF7 cells; type: cell-based; settings: for DC50: 4 hours post compound addition, ERα in cell western, read-out: Degradation IC50; for % Degradation at 3 μM: 4 hours, relative to fulvestrant
Procedure, shortened: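 MCF7 cells in phenol-red-free medium with 5% charcoal-stripped FBS received compound (9-point 1:5, 3-0.000018 μM) for 4 h, then were fixed. ERα immunostained (Alexa 488) and normalised to DNA (Syto-64), read as integrated fluorescence on an Acumen scanner.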

[2] = tested on: MCF7 cells expressing mutant estrogen receptor Asp 538 Gly; experiment: Test B: cell proliferation/viability assay (CellTiter-Glo) on MCF7 Asp 538 Gly mutant; type: cell-based; settings: Homo sapiens, MCF7 cells expressing ER Asp 538 Gly mutant, 7 days of compound exposure, read-out: proliferation MCF7 D538G IC50
Text: (§2) Test B: Cell Proliferation/Viability Assay on MCF7 (Breast Tumor Cells) WT and Mutants Cell Lines
(§3) Test B involves measuring the in vitro proliferation activity of the compounds of the invention by analyzing the viability of the tumor cells.
(§4) The measurements of the viability were made using a breast cancer cell viability assay as described hereunder.
(§5) MCF7 cells expressing (and dependent) on mutants estrogen receptor Tyr 537 Ser or Asp 538 Gly were generated by transfection of MCF7 parental cells (ATCC) with expression vectors coding for different mutants of estrogen receptor Tyr 537 Ser or Asp 538 Gly. The cells were first selected by antibiotic (related to vector expression) and then selected for their growth dependence on estrogen receptor based on their ability to grow in vitro in absence of estradiol (parental cell line die in absence of estradiol).
(§6) MCF7 cells (ATCC) or MCF7 cells expressing (and dependent) on mutants estrogen receptor Tyr 537 Ser or Asp 538 Gly were seeded in 384 wells microplate at concentration of >999 cells/30 μL per well in red phenol free MEM medium containing 5% charcoal dextran striped FBS. The following day, 9 points serial 1:5 dilution of each compound were added to the cells in 20 μL at final concentrations ranging from 3-0.000001 μM. After 7 days of compound exposure, 50 μL of CellTiter-Glo (promega) was added to the cells and relative luminescence arbitrary units (RLUs) were determined in luminescence plate reader (Envision device). CellTiter-Glo was added to 50 μL medium without cells to determine the background signal.
(§7) The percent of viability of each sample was determined as follows: (RLU sample−RLU background/RLU untreated−RLU background)*100=% viability.

[3] = target: His6-ERα298-554 Y537S mutant (ERα ligand-binding domain) (Homo sapiens (Human), UniProt P03372, Y537S); experiment: Test A: biochemical antagonist activity, LanthaScreen TR-FRET ERα coactivator assay, Y537S mutant; settings: read-out: Antagonism Y537S IC50
Procedure, shortened: as §1

[4] = tested on: MCF7 cells (breast tumor cells) WT; experiment: Test B: cell proliferation/viability assay (CellTiter-Glo) on MCF7 WT; type: cell-based; settings: Homo sapiens, 7 days of compound exposure
Protocol: as §2, §3
The measurements of the viability were made using a breast cancer cell viability assay as described hereunder. […]
as §6, §7

[5] = target: His6-ERα298-554 WT (ERα ligand-binding domain) (Homo sapiens (Human), UniProt P03372); experiment: Test A: biochemical antagonist activity, LanthaScreen TR-FRET ERα coactivator assay, WT; settings: read-out: Antagonism WT IC50
Procedure, shortened: as §1

[6] = tested on: MCF7 cells expressing mutant estrogen receptor Tyr 537 Ser; experiment: Test B: cell proliferation/viability assay (CellTiter-Glo) on MCF7 Tyr 537 Ser mutant; type: cell-based; settings: Homo sapiens, MCF7 cells expressing ER Tyr 537 Ser mutant, 7 days of compound exposure, read-out: proliferation MCF7 Y537S IC50
Text: as §2, §3, §4, §5, §6, §7

[7] = asterisk (*): protocol using 10 nM estradiol

Chain of ERα in MCF7 cells (P03372 whole entry): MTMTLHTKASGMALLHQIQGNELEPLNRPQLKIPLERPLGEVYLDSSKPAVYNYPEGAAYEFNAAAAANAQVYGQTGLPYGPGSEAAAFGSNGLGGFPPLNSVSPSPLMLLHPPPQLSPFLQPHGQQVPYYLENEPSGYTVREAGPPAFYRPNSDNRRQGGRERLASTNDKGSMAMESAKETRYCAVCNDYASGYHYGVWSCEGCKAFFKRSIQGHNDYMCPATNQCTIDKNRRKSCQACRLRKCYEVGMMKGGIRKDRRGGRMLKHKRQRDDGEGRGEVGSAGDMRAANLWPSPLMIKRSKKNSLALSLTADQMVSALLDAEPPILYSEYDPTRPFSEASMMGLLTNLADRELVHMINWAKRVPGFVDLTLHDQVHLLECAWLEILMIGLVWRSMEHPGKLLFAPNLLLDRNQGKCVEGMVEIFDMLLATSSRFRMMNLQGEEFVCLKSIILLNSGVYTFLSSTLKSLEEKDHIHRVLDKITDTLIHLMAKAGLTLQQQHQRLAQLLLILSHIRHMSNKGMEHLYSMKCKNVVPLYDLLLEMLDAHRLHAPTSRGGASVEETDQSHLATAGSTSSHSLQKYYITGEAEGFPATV
Chain of His6-ERα298-554 D538G mutant (ERα ligand-binding domain) (P03372 298-554 D538G): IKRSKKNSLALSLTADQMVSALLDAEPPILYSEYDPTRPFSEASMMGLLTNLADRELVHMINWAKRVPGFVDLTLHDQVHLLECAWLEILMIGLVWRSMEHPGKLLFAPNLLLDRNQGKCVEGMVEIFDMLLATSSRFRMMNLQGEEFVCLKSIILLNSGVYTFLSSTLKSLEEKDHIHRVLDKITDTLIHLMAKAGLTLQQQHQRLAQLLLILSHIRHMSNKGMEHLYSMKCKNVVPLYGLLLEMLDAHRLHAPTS
Chain of His6-ERα298-554 WT (ERα ligand-binding domain) (P03372 298-554): as the sequence (P03372 298-554 D538G) above, with G241D counted along it
Chain of His6-ERα298-554 Y537S mutant (ERα ligand-binding domain) (P03372 298-554 Y537S): as the sequence (P03372 298-554 D538G) above, with Y240S, G241D counted along it

Compound	pIC50 [1, 7]	DC50 (ERα in MCF7 cells) [nM]	% Degradation at 3 μM (ERα in MCF7 cells) [%]	pIC50 ([2]; MCF7, 168 h)	pIC50 [3, 7]	pIC50 ([4]; MCF7, 168 h)	pIC50 [5, 7]	pIC50 ([6]; MCF7, 168 h)	pIC50 ([2]; 168 h)	pIC50 ([4]; 168 h)	pIC50 ([6]; 168 h)	pIC50 ([1]; protocol with 3 nM estradiol)	pIC50 ([3]; protocol with 3 nM estradiol)	pIC50 ([5]; protocol with 3 nM estradiol)
[O-][S+]1CCC(c2ccc(OC(F)(F)F)cc2)=C(c2ccc(O[C@H]3CCN(CCCF)C3)cc2)c2ccc(O)cc21 (stereo partly drawn) [Example 225, 5-[4-[(3S)-1-(3-fluoropropyl)pyrrolidin-3-yl]oxyphenyl]-1-oxo-4-[4-(trifluoromethoxy)phenyl]-2,3-dihydro-benzothiepin-8-ol]	< 5.40	6	82	7.44	< 5.40	7.74	6.12	6.60						
Cc1ccc(C2=C(c3ccc(O[C@H]4CCN(CCCF)C4)cc3)c3ccc(OP(=O)(O)O)cc3SC2)c(F)c1 [Example 48, [3-(2-fluoro-4-methyl-phenyl)-4-[4-[(3S)-1-(3-fluoropropyl)pyrrolidin-3-yl]oxyphenyl]-2H-thiochromen-7-yl]dihydrogen phosphate]	< 5.40	0.8	89		< 5.40		< 5.40		8.22	9.00	7.77			
CCOc1ccc(C2=C(c3ccc(O[C@H]4CCN(CCCF)C4)nc3)c3ccc(O)cc3SCC2)c(F)n1 [Example 208, 4-(6-ethoxy-2-fluoro-3-pyridyl)-5-[6-[(3S)-1-(3-fluoropropyl)pyrrolidin-3-yl]oxy-3-pyridyl]-2,3-dihydro-1-benzothiepin-8-ol]	8.15	0.4	86	9.15	8.30	9.70	9.22	8.40						
Oc1ccc2c(c1)OCCC(c1ccc(Cl)cc1F)=C2c1ccc(O[C@H]2CCN(CCCF)C2)cc1 [Example 98, 4-(4-chloro-2-fluoro-phenyl)-5-[4-[(3S)-1-(3-fluoropropyl)pyrrolidin-3-yl]oxyphenyl]-2,3-dihydro-1-benzoxepin-8-ol]		0.5	93	8.70		9.30		8.30				6.97	7.40	7.85
Oc1ccc2c(c1)SCCC(c1ccc3c(c1)CCN3)=C2c1ccc(O[C@H]2CCN(CCCF)C2)cc1 [Example 176, 5-[4-[(3S)-1-(3-fluoropropyl)pyrrolidin-3-yl]oxyphenyl]-4-indolin-5-yl-2,3-dihydro-1-benzothiepin-8-ol]		0.2	85	8.05		8.52		7.32				7.55	7.70	8.22
CCN(CC)c1ccc(C2=C(c3ccc(O[C@H]4CCN(CCCF)C4)cc3)c3ccc(O)cc3SCC2)c(F)c1 [Example 224, 4-[4-(diethylamino)-2-fluoro-phenyl]-5-[4-[(3S)-1-(3-fluoropropyl)pyrrolidin-3-yl]oxyphenyl]-2,3-dihydro-1-benzothiepin-8-ol]	5.83	3	85	8.10	5.99	8.52	7.15	7.08						
Oc1ccc(C2=C(c3ccc(O[C@H]4CCN(CCCF)C4)cc3)c3ccc(O)cc3CC2)cc1 [Example 15, 5-[4-[(3S)-1-(3-fluoropropyl)pyrrolidin-3-yl]oxyphenyl]-6-(4-hydroxyphenyl)-7,8-dihydronaphthalen-2-ol]				7.60		9.70		7.52						
Oc1ccc2c(c1)CCC(c1ccc(OC(F)(F)F)cc1)=C2c1ccc(O[C@H]2CCN(CCCF)C2)cc1 [Example 12, 5-[4-[(3S)-1-(3-fluoropropyl)pyrrolidin-3-yl]oxyphenyl]-6-[4-(trifluoromethoxy)phenyl]-7,8-dihydronaphthalen-2-ol]				8.30		9.00		8.05						
CC(C)Oc1ccc(C2=C(c3ccc(O[C@H]4CCN(CCCF)C4)cc3)c3ccc(O)cc3OCC2)c(C(F)(F)F)c1.Cl [Example 150, 5-[4-[(3S)-1-(3-fluoropropyl)pyrrolidin-3-yl]oxyphenyl]-4-[4-isopropoxy-2-(trifluoromethyl)phenyl]-2,3-dihydro-1-benzoxepin-8-ol hydrochloride]		4	82	8.70		9.40		7.85						
Oc1ccc2c(c1)SCCC(c1ccc(Cl)cc1Cl)=C2c1ccc(O[C@H]2CCN(CCCF)C2)cc1 [Example 166, 4-(2,4-dichlorophenyl)-5-[4-[(3S)-1-(3-fluoropropyl)pyrrolidin-3-yl]oxyphenyl]-2,3-dihydro-1-benzothiepin-8-ol]		2	90	9.00		9.70		8.10						
O=C(O)c1ccc2c(c1)SCCC(c1ccc(Cl)cc1Cl)=C2c1ccc(O[C@H]2CCN(CCCF)C2)cc1 [Example 203, 4-(2,4-dichlorophenyl)-5-[4-[(3S)-1-(3-fluoropropyl)pyrrolidin-3-yl]oxyphenyl]-2,3-dihydro-1-benzothiepine-8-carboxylic acid]		0.6	93	9.00		9.10		7.89						
Cc1nc(C)c(C2=C(c3ccc(O[C@H]4CCN(CCCF)C4)cc3)c3ccc(O)cc3SC2)s1 [Example 68, 3-(2,4-dimethylthiazol-5-yl)-4-[4-[(3S)-1-(3-fluoropropyl)pyrrolidin-3-yl]oxyphenyl]-2H-thiochromen-7-ol]				8.15		7.85		6.90						
Oc1ccc2c(c1)SCCC(c1ccc(Cl)cc1Cl)=C2c1ccc(O[C@H]2CCN(CCCF)C2)nc1 [Example 205, 4-(2,4-dichlorophenyl)-5-[6-[(3S)-1-(3-fluoropropyl)pyrrolidin-3-yl]oxy-3-pyridyl]-2,3-dihydro-1-benzothiepin-8-ol]		0.4	84	9.70		9.70		8.52						
Oc1ccc2c(c1)CCC(c1ccc(Cl)cc1Cl)=C2c1ccc(O[C@H]2CCN(CCCF)C2)cc1 [Example 14, 6-(2,4-dichlorophenyl)-5-[4-[(3S)-1-(3-fluoropropyl)pyrrolidin-3-yl]oxyphenyl]-7,8-dihydronaphthalen-2-ol]				9.00		9.30		8.22						
Cc1ccc(C2=C(c3ccc(O[C@H]4CCN(CCCF)C4)cc3)c3ccc(O)cc3SC2)c(Cl)c1 [Example 58, 3-(2-chloro-4-methyl-phenyl)-4-[4-[(3S)-1-(3-fluoropropyl)pyrrolidin-3-yl]oxyphenyl]-2H-thiochromen-7-ol]				9.10		8.70		8.30						
Oc1ccc2c(c1)CCCC(c1ccc(Cl)c(F)c1)=C2c1ncc(O[C@H]2CCN(CCCF)C2)cn1 [Example 254, 6-(4-chloro-3-fluoro-phenyl)-5-[5-[(3S)-1-(3-fluoropropyl)pyrrolidin-3-yl]oxypyrimidin-2-yl]-8,9-dihydro-7H-benzo[7]annulen-2-ol]				7.77		7.80		6.89						
